Measured values reported in patent US10874743B2, “IRAK degraders and uses thereof” (Kymera Therapeutics, Inc., priority 2017, dated 2020).

Legend:
IRAK4 [1] = target: T1, IRAK4 (Homo sapiens, UniProt Q9NWZ3); test: OCI-LY-10 degradation assay (western blot, % IRAK4 degraded after 4 hours); assay type: cell-based; design: endogenous in cells; host or cells: OCI-LY10; conditions: OCI-LY10 cells, 4 hours; for OCI-LY10 % IRAK4 Degradation (0.01 uM): 0.01 uM compound; for OCI-LY10 % IRAK4 Degradation (0.1 uM): 0.1 uM compound; for OCI-LY10 % IRAK4 Degradation (1 uM): 1 uM compound
T1 sequence (Q9NWZ3 1-460): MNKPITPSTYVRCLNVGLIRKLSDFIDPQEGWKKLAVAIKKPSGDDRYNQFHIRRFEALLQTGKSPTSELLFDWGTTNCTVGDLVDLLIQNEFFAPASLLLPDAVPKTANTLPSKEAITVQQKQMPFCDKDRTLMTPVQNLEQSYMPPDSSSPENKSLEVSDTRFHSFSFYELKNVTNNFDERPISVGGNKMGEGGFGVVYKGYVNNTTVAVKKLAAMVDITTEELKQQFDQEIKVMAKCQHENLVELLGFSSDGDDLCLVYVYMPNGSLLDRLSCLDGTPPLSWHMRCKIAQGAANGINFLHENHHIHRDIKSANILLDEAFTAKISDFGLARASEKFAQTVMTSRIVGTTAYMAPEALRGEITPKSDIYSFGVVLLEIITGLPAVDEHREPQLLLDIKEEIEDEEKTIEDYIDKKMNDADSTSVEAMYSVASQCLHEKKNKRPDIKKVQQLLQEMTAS
Summary of the method: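 IRAK4 loss after 4 h at 37° C was scored A (>50%), B (>20-50%) or C (<20%) from infrared western blots of RIPA lysates, 20-25 μg protein per lane. Compound was applied at 0.003-10 μM final to OCI-LY10 cells cultured in RPMI-1640 with 20% FBS and 55 μM 2-ME.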

IRAK4 [2] = target: T1, IRAK4; test: OCI-LY-10 MSD assay for IRAK4 DC50; assay type: cell-based; design: endogenous in cells; host or cells: OCI-LY10; conditions: OCI-LY10 cells, 4 hr incubation, concentration required to degrade 50% of protein
Procedure: A MSD assay was run to determine the concentration of compound required to degrade 50% of protein (DC50).
Day 1 • Compounds were reconstituted to 10 mM in stock solutions. The stock solutions were diluted to 5 mM and 45 μL of each dilution was transferred to a 384 pp-plate. A 3 fold, 8-point serial dilution was performed by transferring 15 μL of compound into 30 μL DMSO using Janus. • 20 nL of each compounds were added into each well of a 96-well plate (Corning3799). • OCI-Ly10 cells were seeded into the 96-well plate at 3.0*10e^5 cells/100 μL/well. • The cell plate was shaken at 720 rpm for 5 min and incubated for 4 hr. • The 100 μL of cells were transferred into the 96-PCR plate and spun down at high speed for 5 mins. • The supernatant was discarded and 100 μL of RIPA lysis buffer with proteinase inhibitors was added per well. The plate was then sealed and shaken at 600 rpm and 4° C. for about 20 min. • The plate was then spun down at high speed (about 3200 g) for 30 min and then frozen in a −80° C. fridge. • A bare MSD plate (L15XA-3) was coated with 2 μg/mL of capture antibody (mouse Anti-IRAK4 antibody [2H9], ab119942) in PBS to 40 μL/well and incubated overnight at 4° C.
Day 2 • The MSD coated plate was washed 3× (150 μL/well) with 1×TBST (CST #9997S). • The MSD plate was then blocked with 150 μL of blocking buffer [3% Blocker A (MSD, R93BA-4) in TBST]/well and shaken for 1 hr at R^† and 600 rpm. • The MSD plate was washed 3× (150 μL/well) with 1×TBST. The sample RIPA lysates were then added to the MSD plate (50 μL/well) and shaken for 1 hr at R^† and 600 rpm. • The MSD plate was washed 3× (150 μL/well) with 1×TBST and the primary detection antibody (Rabbit Anti-IRAK4 antibody [Y279], ab32511) was added to a final concentration of 1 μg/ml with 25 μL/well. The plate was then shaken for 1 hr at RT and 600 rpm. • The MSD plate was washed 3× (150 μL/well) with 1×TBST and the secondary detection antibody, SULFO-TAG anti-species antibody (Anti Rabbit Antibody (R32AB-5) MSD, R32AB-1) was added to a volume of 25 μL/well at a final concentration of 1 jag/ml. The plate was then shaken for 1 hr at RT and 600 rpm. • The MSD plate was then washed 3× (150 μL/well) with 1×TBST. • lx MSD reading buffer was then added (150 μL/well) and the plate was diluted with 4× water. (MSD, R92TC-2) • The MSD instrument was then read.
Data Analysis • The remaining activity was calculated following the formula below:
Calculate • The DC50 was calculated by fitting the Curve using Xlfit (v5.3.1.3), equation 201: Y=Bottom+(Top−Bottom)/(1+10^((Log IC50−X)*HillSlope))
OCI-LY-10 DC50 results. The letter codes for IRAK4 DC50 indicate the concentration of compound required to degrade 50% of protein: A (<0.05 μM), B (0.05-0.1 μM), C (0.1-0.5 μM), D (0.5-1.0 μM), and E (>1.0 μM).

| Compound | OCI-LY10 % IRAK4 Degradation (0.01 uM) (IRAK4 [1]) | OCI-LY10 % IRAK4 Degradation (0.1 uM) (IRAK4 [1]) | OCI-LY10 % IRAK4 Degradation (1 uM) (IRAK4 [1]) | DC50 (IRAK4 [2]) [nM] |
| --- | --- | --- | --- | --- |
| NC(=O)c1nn(-c2ccc(C(=O)NCC3CCCCN3CCOCCNc3cccc4c3C(=O)N(C3CCC(=O)NC3=O)C4=O)cc2)cc1NC(=O)c1coc(-c2ccnc(NCC(F)(F)F)c2)n1 (stereo not drawn) [I-219] | A (>50% degradation) | A (>50% degradation) | A (>50% degradation) | < 50 |
| CN(CCOCCOCCCc1cccc2c1C(=O)N(C1CCC(=O)NC1=O)C2=O)C(=O)c1ccc(-n2cc(NC(=O)c3coc(-c4ccnc(NCC5CC5)c4)n3)c(C(N)=O)n2)cc1 (stereo not drawn) [I-224] | B (>20-50% degradation) | A (>50% degradation) | A (>50% degradation) | < 50 |
| CN(CCOCCOCCCc1cccc2c1C(=O)N(C1CCC(=O)NC1=O)C2=O)C(=O)c1ccc(-n2cc(NC(=O)c3coc(-c4ccnc(NCC5CC5)c4)n3)c(C(F)F)n2)cc1 (stereo not drawn) [I-225] | C (<20% degradation) | A (>50% degradation) | A (>50% degradation) | < 50 |
| CN(CCOCCOCCCc1ccc2c(c1)C(=O)N(C1CCC(=O)NC1=O)C2=O)C(=O)c1ccc(-n2cc(NC(=O)c3coc(-c4ccncc4)n3)c(C(N)=O)n2)cc1 (stereo not drawn) [I-227] | B (>20-50% degradation) | A (>50% degradation) | A (>50% degradation) | < 50 |
| Cn1c(=O)n(C2CCC(=O)NC2=O)c2ccc(CCCOCCC(=O)N3CCN(C4CCC(Nc5ncnn6ccc(C7CCOCC7)c56)CC4)CC3)cc21 (stereo not drawn) [I-437, 3-[3-Methyl-2-oxo-5-[3-[3-oxo-3-[4-[4-[(5-tetrahydropyran-4-ylpyrrolo[2,1-f][1,2,4]triazin-4-yl)amino]cyclohexyl]piperazin-1-yl]propoxy]propyl]benzimidazol-1-yl]piperidine-2,6-dione] |  |  |  | > 1000 |
| Cn1c(=O)n(C2CCC(=O)NC2=O)c2ccc(CCCCCCC(=O)N3CCN(C4CCC(Nc5ncnn6ccc(C7CCOCC7)c56)CC4)CC3)cc21 (stereo not drawn) [I-438] |  |  |  | > 1000 |
| Cn1c(=O)n(C2CCC(=O)NC2=O)c2cccc(CCCOCCOCCOCCOCC(=O)N[C@H]3CC[C@H](Nc4ncnc5[nH]cc(C6CCOCC6)c45)CC3)c21 (stereo partly drawn) [I-440, 2-[2-[2-[2-[3-[1-(2,6-Dioxo-3-piperidyl)-3-methyl-2-oxo-benzimidazol-4-yl]propoxy]ethoxy]ethoxy]ethoxy]-N-[4-[(5-tetrahydropyran-4-yl-7H-pyrrolo[2,3-d]pyrimidin-4-yl)amino]cyclohexyl]acetamide] |  |  |  | > 1000 |
| Cn1c(=O)n(C2CCC(=O)NC2=O)c2ccc(CCCCOCCCCNCc3ccc(-n4cc(NC(=O)c5cnn6ccc(N7CCNCC7)nc56)c(C(F)F)n4)cc3)cc21 (stereo not drawn) [I-441, N-[3-(difluoromethyl)-1-[4-[[4-[4-[1-(2,6-dioxo-3-piperidyl)-3-methyl-2-oxo-benzimidazol-5-yl]butoxy]butylamino]methyl]phenyl]pyrazol-4-yl]-5-piperazin-1-yl-pyrazolo[1,5-a]pyrimidine-3-carboxamide] |  |  |  | > 1000 |
| Cn1c(=O)n(C2CCC(=O)NC2=O)c2cccc(CCCOCCOCCOCCOCCN[C@H]3CC[C@H](Nc4ncnc5[nH]cc(C6CCOCC6)c45)CC3)c21 (stereo partly drawn) [I-442, 3-[3-Methyl-2-oxo-4-[3-[2-[2-[2-[2-[[4-[(5-tetrahydropyran-4-yl-7H-pyrrolo[2,3-d]pyrimidin-4-yl)amino]cyclohexyl]amino]ethoxy]ethoxy]ethoxy]ethoxy]propyl]benzimidazol-1-yl]piperidine-2,6-dione] |  |  |  | > 1000 |
| Cn1c(=O)n(C2CCC(=O)NC2=O)c2cccc(CCCOCCOCCOCCOCC(=O)N3CCN(C4CCC(Nc5ncnc6[nH]cc(C7CCOCC7)c56)CC4)CC3)c21 (stereo not drawn) [I-444, 3-[3-Methyl-2-oxo-4-[3-[2-[2-[2-[2-oxo-2-[4-[4-[(5-tetrahydropyran-4-yl-7H-pyrrolo[2,3-d]pyrimidin-4-yl)amino]cyclohexyl]piperazin-1-yl]ethoxy]ethoxy]ethoxy]ethoxy]propyl]benzimidazol-1-yl]piperidine-2,6-dione] |  |  |  | 50 to 100 |
| Cn1c(=O)n(C2CCC(=O)NC2=O)c2ccc(CCCCOCCCCNC(=O)c3ccc(-n4cc(NC(=O)c5cnn6ccc(N7CCNCC7)nc56)c(C(F)F)n4)cc3)cc21 (stereo not drawn) [I-445, N-[3-(difluoromethyl)-1-[4-[4-[4-[1-(2,6-dioxo-3-piperidyl)-3-methyl-2-oxo-benzimidazol-5-yl]butoxylbutyl]carbamoyl]phenyl]pyrazol-4-yl]-5-piperazin-1-yl-pyrazolo[1,5-a]pyrimidine-3-carboxamide] |  |  |  | 50 to 100 |
| Cn1c(=O)n(C2CCC(=O)NC2=O)c2cccc(CCCOCCOCCNCc3ccc(-n4cc(NC(=O)c5cnn6ccc(N7CCNCC7)nc56)c(C(F)F)n4)cc3)c21 (stereo not drawn) [I-446, N-[3-(difluoromethyl)-1-[4-[[2-[2-[3-[1-(2,6-dioxo-3-piperidyl)-3-methyl-2-oxo-benzimidazol-4-yl]propoxy]ethoxy]ethylamino]methyl]phenyl]pyrazol-4-yl]-5-piperazin-1-yl-pyrazolo[1,5-a]pyrimidine-3-carboxamide] |  |  |  | 100 to 500 |
| Cn1c(=O)n(C2CCC(=O)NC2=O)c2ccc(CCCOCCOCCOCCOCC(=O)N3CCN(C4CCC(Nc5ncnc6[nH]cc(C7CCOCC7)c56)CC4)CC3)cc21 (stereo not drawn) [I-447, 3-[3-Methyl-2-oxo-5-[3-[2-[2-[2-[2-oxo-2-[4-[4-[(5-tetrahydropyran-4-yl-7H-pyrrolo[2,3-d]pyrimidin-4-yl)amino]cyclohexyl]piperazin-1-yl]ethoxy]ethoxy]ethoxy]ethoxy]propyl]benzimidazol-1-yl]piperidine-2,6-dione] |  |  |  | 50 to 100 |
| CN[C@@H](C)C(=O)N[C@H](C(=O)N1CCC[C@H]1c1nc(C(=O)c2cccc(OCCOCCOCCOCCNCc3ccc(-n4cc(NC(=O)c5coc(-c6ccnc(NCC7CC7)c6)n5)c(C(F)F)n4)cc3)c2)cs1)C1CCCCC1 [I-554] |  |  |  | > 1000 |
| CN[C@@H](C)C(=O)N[C@H](C(=O)N1Cc2cc(OCCOCCOCCOCCNCc3ccc(-n4cc(NC(=O)c5coc(-c6ccnc(NCC7CC7)c6)n5)c(C(F)F)n4)cc3)ccc2C[C@H]1C(=O)N[C@@H]1CCCc2ccccc21)C(C)(C)C [I-681, 2-[2-(Cyclopropylmethylamino)-4-pyridyl]-N-[3-(difluoromethyl)-1-[4-[[2-[2-[2-[2-[[(3S)-2-[(2S)-3,3-dimethyl-2-[[(2S)-2-(methylamino)propanoyl]amino]butanoyl]-3-[[(1R)-tetralin-1-yl]carbamoyl]-3,4-dihydro-1H-isoquinolin-7-yl]oxy]ethoxy]ethoxy]ethoxy]ethylamino]methyl]phenyl]pyrazol-4-yl]oxazole-4-carboxamide] |  |  |  | 500 to 1000 |
